The target in the assay is T1, BluB/CobT2 (Propionibacterium freudenreichii, UniProt D7GJ95).
T1 construct: E. coli KRX, pFN18A; HaloTag removed by HaloTEV; N-terminal SDNA replaces initial Met
Nature of the assay: LC-ESI-MS of alpha-ribazole phosphate formed. The assay is classed as biochemical. The following applies: 200 µM NaMN, 100 µM DMBI, 1 mM DTT, Tris-HCl pH 8.5, room temperature; CobT activity.

T1 sequence (D7GJ95 entry or part of it): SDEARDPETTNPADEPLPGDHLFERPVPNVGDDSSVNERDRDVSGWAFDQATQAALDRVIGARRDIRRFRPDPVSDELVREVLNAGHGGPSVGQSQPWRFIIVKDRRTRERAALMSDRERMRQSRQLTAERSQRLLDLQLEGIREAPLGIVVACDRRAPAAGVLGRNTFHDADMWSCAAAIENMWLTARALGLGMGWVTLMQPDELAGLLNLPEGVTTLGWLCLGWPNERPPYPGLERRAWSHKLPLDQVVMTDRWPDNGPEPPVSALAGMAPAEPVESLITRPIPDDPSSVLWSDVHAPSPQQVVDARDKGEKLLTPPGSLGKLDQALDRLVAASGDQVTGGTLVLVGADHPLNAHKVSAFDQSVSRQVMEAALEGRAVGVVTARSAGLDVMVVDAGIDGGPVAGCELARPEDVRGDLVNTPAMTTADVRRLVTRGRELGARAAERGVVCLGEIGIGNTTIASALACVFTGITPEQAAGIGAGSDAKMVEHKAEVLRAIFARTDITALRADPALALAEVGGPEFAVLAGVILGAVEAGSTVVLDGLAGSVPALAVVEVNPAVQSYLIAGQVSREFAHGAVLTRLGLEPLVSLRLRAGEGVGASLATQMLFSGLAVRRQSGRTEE

Turning to `O=C([O-])c1ccc[n+]([C@@H]2O[C@H](COP(=O)(O)O)[C@@H](O)[C@H]2O)c1` [NaMN], the “LC-ESI-MS of alpha-ribazole phosphate formed” value was “confirms that NaMN is the preferred substrate”.

The record behind these values is article PMC4657239, “BluB/CobT2 fusion enzyme activity reveals mechanisms responsible for production of active form of vitamin B12 by Propionibacterium freudenreichii” (Microbial Cell Factories, 2015).
